Experimental findings from US20120269725A1, “TARGETED RADIOLABELED COMPOUNDS AND THEIR USE FOR THE TREATMENT AND DIAGNOSIS OF CANCER” (priority 2009, published 2012) are described below.

For one data set, the target named is human BChE (Homo sapiens, UniProt P06276). The experiment in a line: UV-based BChE inhibition (IC50) assay. It counts as biochemical. The note with it: non-radioactive compounds, 30 min preincubation, room temperature, pH 7.0. As for the experimental part: Assays employed to determine IC50 were developed by the present inventors and utilized UV based detection. For UV-based assays, a BChE solution in 0.1 M potassium phosphate, pH 7.0 was placed in the desired numbers of wells of a 96-well plate (0.05 mL/well). The investigated compound was diluted in DMSO to produce concentrations from 0 to 10 μM in DMSO and 0.002 mL/well of these dilutions was added to BChE-containing wells. Reaction mixtures were incubated at room temperature for 30 min. The reagent consisting of BChE substrate, 1 mM (2-mercaptoethyl)trimethylammonium iodide butyrate, and 0.5 mM 5,5′-dithio-bis(2-nitrobenzoic acid) in 0.1 M potassium phosphate, pH 7.0 (prepared fresh for each assay) was added, 0.25 mL per well. The mixture was incubated at room temperature and the OD at λ=405 nm was read at 1, 2, 3, 4, 5, 10, and 15 min after the addition of this reagent using the Opsys MR™plate reader (Dynex Technologies, Chantilly, Va.). Data were analyzed using the IC50 nonlinear regression function provided by GraphPad Prism (GraphPad Software, La Jolla, Calif.).
human BChE, sequence (P06276 29-602): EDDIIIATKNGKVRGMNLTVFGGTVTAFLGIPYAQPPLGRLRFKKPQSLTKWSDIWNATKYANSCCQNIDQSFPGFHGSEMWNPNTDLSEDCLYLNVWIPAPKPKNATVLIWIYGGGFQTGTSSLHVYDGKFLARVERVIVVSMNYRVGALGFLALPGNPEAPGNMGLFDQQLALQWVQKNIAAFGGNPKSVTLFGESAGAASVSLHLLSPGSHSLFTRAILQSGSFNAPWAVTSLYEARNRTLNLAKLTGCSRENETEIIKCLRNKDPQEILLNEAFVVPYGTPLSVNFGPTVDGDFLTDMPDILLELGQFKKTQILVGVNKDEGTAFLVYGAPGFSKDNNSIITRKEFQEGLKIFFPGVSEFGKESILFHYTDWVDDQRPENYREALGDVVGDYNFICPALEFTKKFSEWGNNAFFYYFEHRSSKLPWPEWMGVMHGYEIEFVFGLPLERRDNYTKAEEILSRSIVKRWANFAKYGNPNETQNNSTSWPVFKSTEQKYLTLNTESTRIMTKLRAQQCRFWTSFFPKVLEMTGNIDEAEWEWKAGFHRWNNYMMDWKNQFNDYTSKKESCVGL
The compound binding of several non-radioactive compounds of the method of the invention were analyzed by the aforementioned human BChE compound binding study to determine their affinity for the therapeutic target (Table 1).

For a further data set, the system named is IP OVCAR-3 tumors. Description: Pilot therapy of IP OVCAR-3 tumors in athymic mice. It is filed as in vivo. The conditions noted are these: for whole body retention, median / whole body retention: after 14 days; for whole body retention: value with spread in brackets. An excerpt:
In pilot therapy experiments, the effects of unmodified ^125IUdR on the growth of IP OVCAR-3 tumors were compared to the therapeutic effects of the 6b diastereomeric mixture and 7b diastereomeric mixture. The tumor model used in this study, OVCAR-3 cell line, was established from the malignant ascites of a patient with progressive adenocarcinoma of the ovary after many types of chemotherapy including cyclophosphamide, adriamycin, and cisplatin. OVCAR-3 is resistant in vitro to clinically relevant concentrations of adriamycin, melphalan, and cisplatin (Hamilton T C, Young R C, Louie K G, Behrens B C, McKoy W M, Grotzinger K R, Ozols R F. Characterization of a xenograft model of human ovarian carcinoma which produces ascites and intraabdominal carcinomatosis in mice. Cancer Res. 1984; 44:5286-90.). In immunodeficient mice, IP injected OVCAR-3 cells produce malignant ascites, peritoneal carcinomatosis, and serosal and visceral seeding that, if left untreated, leads to death from respiratory compromise, hemorrhage from invasion of intra-abdominal blood vessels, and bowel obstruction. Substantial literature data (nearly 100 publications) confirm that this tumor model has pathogenesis and metastatic properties similar to those of human ovarian cancer.
Mice received IP implants of approximately 2.4×10^8 OVCAR-3 cells/mouse isolated from fresh OVCAR-3 mouse ascites. Cell viability was measured before and after injection, and was ≧90%. Four days after tumor cells were implanted, the mice received SQ transponders and were randomized via a lottery into four groups: NT—untreated controls that received IP injection of PBS; 7b group—receiving IP doses of the 7b diastereomeric mixture in PBS (average 0.4 mCi/mouse (14.8 MBq)); 6b group—receiving IP doses of the 6b diastereomeric mixture in PBS (average dose 0.36 mCi/mouse (13.3 MBq)); and ^125IUdR group—receiving IP doses of ^125IUdR (average 0.43 mCi/mouse (15.9 MBq)) in PBS. Mice were monitored three times per week.
Mice in the 6b group received 0.22 mCi (8.1 MBq) 6b diastereomeric mixture on day 27; and on day 28 mice in ^125IUdR group were treated with additional 0.2 mCi (7.4 MBq) ^125IUdR. Slight differences in the dosing schedule and the administered doses are because of the required large quantities of the compounds. For these experiments, ˜20 mCi of no-carrier added and radiochemically pure compounds were required. Each agent was purified on the analytical reversed phase HPLC column. The use of preparative columns in this case is impractical because the products are recovered in large volumes of acetonitrile-containing solvent that must be evaporated to dryness before the use in mice.
Overall, mice in the 7b group were treated with an average of 0.58 mCi (21.5 MBq) 7b diastereomeric mixture; mice in the 6b group were treated with an average of 0.58 mCi (21.5 MBq) 6b diastereomeric mixture, and mice in the ^125IUdR group were treated with an average of 0.63 mCi (23.3 MBq) ^125IUdR.
The therapy was terminated 7 weeks after the first dosing. Mice were sacrificed for the biodistribution study. Blood and solid tumor were taken for the evaluation of their radioactive content. The peritoneal cavity was lavaged with 2-mL aliquots of PBS, and PBS wash and ascites were collected. One mL of the ascites suspension with cancer cells was taken for gamma counting. The rest of the abdominal fluid was centrifuged and 0.5 mL of the supernatant was reserved for gamma counting. The weight of the cell pellet and the supernatant were determined.
Two weeks after the first dose of radiolabeled compounds, the whole body radioactivity was measured to determine to what extent the additional doses of the compounds may increase the radiation burden and therefore may be detrimental to the animal health (FIG. 11B). The absolute amounts were low and ranged from […] for the 6b group to […] in the 7b group. […]

Data set [1] has as its system subcutaneous LS174T tumors (human colorectal adenocarcinoma). The experiment in a line: Biodistribution, clearance and planar imaging in athymic mice bearing subcutaneous LS174T xenografts. It is filed as in vivo, athymic NCr-nu/nu mice. The procedure: The in vivo properties and pharmacology of several compounds of the present invention were initially tested in athymic mice bearing subcutaneous LS174T tumors (human colorectal adenocarcinoma), which have several desirable properties such as rapid growth when implanted subcutaneously (SQ), good vascularization and the availability of considerable historical data for the parent compound IUdR. The clearance rates from blood, tumor, and associated organs were analyzed to determine the structure-pharmacokinetics relationship. The first compounds studied were 6b-fast and 6b-slow. Four-to-six-weeks old female athymic NCr-nu/nu mice (NCI-Frederic, Md., USA) were allowed to acclimate in Applicants' facility after delivery for no less than 5 days. All protocols involving animals were approved by the University of Nebraska Institutional Animal Care and Use Committee. Mice were housed in microisolator cages with free access to sterilized standard rodent diet and water. LS174T cells in 0.1 mL of serum-free medium were implanted SQ at 5×10^6 cells/mouse. One week later identification transponders were implanted, also SQ. Body weights and tumor sizes were monitored twice weekly, and approximately 10 days after the cell implant, mice were randomized for biodistribution studies.
Each of the two isomers, 6b-fast and 6b-slow, was tested independently in separate groups of mice. The comparison to the parent compound, IUdR, was made by co-injecting ^131IUdR with a particular ^125I-labeled diastereomer. Compounds were administered intravenously (IV) via a tail vein.
Biodistribution was conducted at 1 h, 4 h, 24 and 48 h after the administration of radiolabeled compounds (n=6 per time point). The injection doses contained approximately 1 μCi (37 kBq) ^131IUdR and 5 μCi (185 kBq) ^125I-labeled 6b-fast or 6b-slow dissolved in 0.2 mL phosphate buffered saline containing 0.1% bovine serum albumin, pH 7.2 (PBS). All syringes were weighted after loading with the compound solution and immediately after the injection to determine the weight of the injected dose. Triplicate standards of the injected dose were prepared in PBS and counted in a gamma counter just before the beginning of the experiment. The radioactive content of these standards was also determined alongside all tissues after the necropsy to correct the tissue uptake for the decay of the radioisotope. Blood, liver, spleen, heart, lungs, kidneys, brain, tumor and tail were collected during necropsy. Tissues were rinsed in ice-cold saline, patted dry and weighed. The tail was collected to validate the quality of the IV injections.
FIG. 7 presents whole body images for a typical time course distribution (24 h, 48 h, and 72 h) of 6b administered as a diastereomeric mixture in LS174T-bearing athymic mice. The images were acquired 1, 2, and 3 days after the administration of the compound. […] It is also apparent that based on pharmacokinetics, the use of these compounds can be tailored to a specific malignancy and its anatomical location.

Where two headings read alike, the source gives them in different places. Bounds are passed on as bounds.

With `O=c1[nH]c(=O)n(C2CC(O)C(COP3(=O)OCc4ccccc4O3)O2)cc1I` (single isomer, unassigned) [6 - fast, 5-Iodo-5′-O-cycloSaligenyl-2′-deoxyuridine Monophosphate], the IC50 (as a rule, the point on the concentration scale where inhibition reaches its midpoint) at human BChE (IC50 (nM)) is 1280 nM.
Turning to `O=c1[nH]c(=O)n(C2CC(O)C(COP3(=O)OCc4ccccc4O3)O2)cc1I` (single isomer, unassigned) [6 - slow, 5-Iodo-5′-O-cycloSaligenyl-2′-deoxyuridine Monophosphate], the IC50 at human BChE (IC50 (nM)) is 9.2 nM.
Take `Cc1cccc2c1OP(=O)(OCC1OC(n3cc(I)c(=O)[nH]c3=O)CC1O)OC2` (single isomer, unassigned) [7 - fast, 5-Iodo-5′-O-cyclo(3-methylSaligenyl)-2′-deoxyuridine Monophosphate]: on human BChE (IC50 (nM)), the IC50 was greater than 7000 nM.
For `Cc1cccc2c1OP(=O)(OCC1OC(n3cc(I)c(=O)[nH]c3=O)CC1O)OC2` (single isomer, unassigned) [7 - slow, 5-Iodo-5′-O-cyclo(3-methylSaligenyl)-2′-deoxyuridine Monophosphate], the IC50 at human BChE (IC50 (nM)) is 61.2 nM.
On to `CC(C)(C)c1cc(C(C)(C)C)c2c(c1F)COP(=O)(OC[C@H]1O[C@@H](n3cc(I)c(=O)[nH]c3=O)C[C@@H]1O)O2` (single isomer, unassigned) [8 - fast, 5-Iodo-5′-O-[cyclo-3,5-di-(tert-butyl)-6-fluoroSaligenyl]-2′-deoxyuridine Monophosphate], for which the 50% inhibitory concentration (IC50) on human BChE (IC50 (nM)) is greater than 60000 nM.
Turning to `Cc1cn(C2CC(F)C(COP3(=O)OCc4c(F)c(C(C)(C)C)cc(C(C)(C)C)c4O3)O2)c(=O)[nH]c1=O` (single isomer, unassigned) [23 - fast, 5′-O-[cyclo-3,5-Di-(tert-butyl)-6-fluoroSaligenyl]-3′-deoxy-3′-fluorothymidine Monophosphate], the IC50 at human BChE (IC50 (nM)) was found to be 203 nM.
As for `Cc1cn(C2CC(F)C(COP3(=O)OCc4c(F)c(C(C)(C)C)cc(C(C)(C)C)c4O3)O2)c(=O)[nH]c1=O` (single isomer, unassigned) [23 - slow, 5′-O-[cyclo-3,5-Di-(tert-butyl)-6-fluoroSaligenyl]-3′-deoxy-3′-fluorothymidine Monophosphate], the IC50 at human BChE (IC50 (nM)) was determined as 42.6 nM.
On the same count and under the same terms, next, `CC(C)(C)c1cc(C(C)(C)C)c2c(c1F)COP(=O)(OCC1OC(n3cc(I)c(=O)[nH]c3=O)CC1F)O2` (single isomer, unassigned) [24 - fast, 5-Iodo-5′-O-[cyclo-3,5-Di-(tert-butyl)-6-fluoroSaligenyl]-3′-fluoro-2′,3′-dideoxyuridine Monophosphate]: 549 nM; `CC(C)(C)c1cc(C(C)(C)C)c2c(c1F)COP(=O)(OCC1OC(n3cc(I)c(=O)[nH]c3=O)CC1F)O2` (single isomer, unassigned) [24 - slow, 5-Iodo-5′-O-[cyclo-3,5-Di-(tert-butyl)-6-fluoroSaligenyl]-3′-fluoro-2′,3′-dideoxyuridine Monophosphate]: 19.8 nM.
Take `CC(C)(C)c1cc(C(C)(C)C)c2c(c1F)COP(=O)(OC[C@H]1O[C@@H](n3cc(I)c(=O)[nH]c3=O)C[C@@H]1O)O2` (stereo partly drawn) [8 - slow, 5-Iodo-5′-O-[cyclo-3,5-di-(tert-butyl)-6-fluoroSaligenyl]-2′-deoxyuridine Monophosphate]: the IC50 on human BChE (read-out: IC50) was 50.1 nM.
As for `Cc1cccc2c1OP(=O)(OC[C@H]1O[C@@H](n3cc([125I])c(=O)[nH]c3=O)C[C@@H]1O)OC2` (stereo partly drawn) [Compound 7b, 5-[^125I]-Iodo-5′-O-cyclo(3-methylSaligenyl)-2′-deoxyuridine Monophosphate], in the data set on IP OVCAR-3 tumors, the “whole body retention, median” value was found to be 1.25 % ID and the whole body retention is on record as 1.21 (0.12) % ID. For the same molecule, the “reduction in solid tumor deposits as compared to ^125IUdR” value in the data set on IP OVCAR-3 tumors (diastereomeric mixtures IP, total average 0.58 mCi, 7 weeks after first dose) is listed as roughly 50%. For the same molecule, the “tumor retention compared to ^125IUdR” value in the data set on IP OVCAR-3 tumors (necropsy 4 weeks after the boost dose) was “significantly higher compared to ^125IUdR”.
Consider `CC(C)(C)c1cc(C(C)(C)C)c2c(c1F)COP(=O)(OC[C@H]1O[C@@H](n3cc([125I])c(=O)[nH]c3=O)C[C@@H]1O)O2` (stereo partly drawn) [Compound 8b, 5-[^125I]-Iodo-5′-O-[cyclo-3,5-di-(tert-butyl)-6-fluoroSaligenyl]-2′-deoxyuridine Monophosphate], for which the “clearance from blood and normal tissues” value in data set [1] (IV administration) is recorded as “very favorable blood clearance curve”. Besides, the “major site of normal tissue uptake” value in data set [1] (biodistribution data) is “liver is the major site of the normal tissue uptake”.
As to `O=c1[nH]c(=O)n([C@H]2C[C@H](O)[C@@H](CO)O2)cc1[125I]` [^125IUdR, 5-[^125I]-iodo-2′-deoxyuridine, reference compound], in the data set on IP OVCAR-3 tumors, the “whole body retention, median” value turned out to be 1.08 % ID and the whole body retention was 0.97 (0.11) % ID.
